Data: a melting point compilation (Tetko et al.; mined from patent text by program, amines drawn as free bases though some values may be those of a salt)

Row | SMILES | melting point
1 | Cc1cc(-c2ccc(C(F)(F)F)cc2)nc(-c2ccnc(-c3cccc(S(N)(=O)=O)c3)c2)n1 | 218 °C
2 | C=CCSC(=NC(=O)OC)NC(=O)Nc1ccc(C)cc1 | 103 to 105 °C
3 | O=Cc1ccc2c(c1)CC(Cc1ccccc1)O2 (centres undefined) | 77 to 80 °C
4 | O=Cc1c(O)cccc1OCCCCC(=O)O | 94 °C
5 | O=C(CCSC(=O)c1ccccc1)N[C@@H](Cc1ccccc1)C(=O)O | 123 to 124 °C
6 | O=S(=O)(CC=C(c1ccccc1)c1ccccc1)c1ccccc1 | 106 °C
7 | COc1ccc([N+](=O)[O-])cc1C(O)OC (centres undefined) | 147 to 148 °C
8 | COC(CCCNC(=O)c1ccc2c(c1)C(=O)N(CCCC(OC)OC)C2=O)OC | 102 °C
9 | COC(=O)[C@H](CCSC)NC(=O)c1ccc(/C=C(/Cn2ccnc2)c2ccc(F)cc2)cc1 | 54 to 57 °C
10 | COc1cc2c(CCN)c[nH]c2cc1F | 114 to 117 °C
11 | COc1cn(-c2cccc3c2OC(F)(F)O3)nc(-c2ccnn2-c2ccccc2)c1=O | 181 to 183 °C
12 | CCCCn1c(=O)c(NC(=O)Nc2c(C(C)C)cccc2C(C)C)c(-c2cccc(OCCCCl)c2)c2cccnc21 | 138 to 140 °C
13 | C(=C\c1nc(COc2ccc(CCCCn3ccnc3-c3ccccc3)cc2)co1)/c1ccccc1 | 85 to 86 °C
14 | CN1CCC(c2c[nH]c3ccc(NC(=O)c4ccccc4)nc23)CC1 | 111 to 114 °C
15 | CCOC(=O)c1ccc(NC(=O)Nc2nnc(-c3cc(Cl)cc(Cl)c3O)s2)cc1 | > 300 °C
16 | Cn1nc(N2CCNCC2)c2ccccc21 | 100 to 102 °C
17 | COc1cc(C(=O)N2CCN(C(=O)C3=Cc4ccc(OC)c(OC)c4CCC3)CC2)cc(OC)c1OC | 133 to 134 °C
18 | CC1SC(=O)NN=C1c1ccc2c(c1)C(=NNC(=O)c1cccs1)C(=O)N2 (centres undefined) | > 300 °C
19 | CN1CCC(c2c[nH]c3ccc(Br)cc23)C1 (centres undefined) | 152 to 154 °C
20 | COc1ccc(Cn2ncc3c4c(cnc32)CN(C(=O)Nc2ccccc2)CC4)cc1 | > 65 °C
21 | CC(=O)NCCn1ccc2c1-c1ccccc1CC2 | 95 to 96 °C
22 | Cc1cc(-c2ccc(C(F)(F)F)cc2)cc(-c2ccnc(-c3ccnc(N)c3)n2)n1 | 217 °C
23 | COc1cc(-c2ccc(C#N)cc2)cc(-c2nc3cc(C#N)ccc3[nH]2)c1O | 334 to 335 °C
24 | c1cc(-c2n[nH]c3c2Cc2ccc(CN4CCNCC4)cc2-3)cs1 | 125 to 130 °C
25 | CCn1cc(C(=O)C(=O)O)c2ccc(-c3ccc(C(F)(F)F)cc3)cc21 | 247 to 248 °C

Row | SMILES | melting point
26 | CCC(CC)N1CCNc2c1cc(C)nc2Oc1c(C)cc(C)cc1C | 138 to 140 °C
27 | CC(C)(C)OC(=O)N1CCC(ON=C(c2ccccc2)c2cc3ccncc3[nH]2)C1 (centres undefined) | 80 to 82 °C
28 | COc1nc2ccccc2cc1NC(=O)N1CCN(c2cccc(OCC3CC3)c2)CC1 | 146 to 147 °C
29 | Cc1oc2cc(C3CC(=O)NC(=O)C3)ccc2c1C | 252 to 254 °C
30 | COc1cc(-c2nc(-n3cncn3)c3c(C)c(C#N)sc3n2)cc(OC)c1OC | 236 to 240 °C
31 | CC(C)(C)c1ccc(-n2c(CC(=O)O)c(C(=O)O)c3cc(Oc4ccc(C(=O)O)cn4)c(Cl)cc32)cc1 | 223 to 235 °C
32 | COc1ccnc(OC)c1CON=C(C)c1cc(C)cc(C)n1 | 114 to 116 °C
33 | CC(Cl)(Cl)C(NC(=O)c1cccc(Cl)c1)Nc1c(Nc2cccnc2)c(=O)c1=O (centres undefined) | 202 to 204 °C
34 | COC(=O)c1[nH]c(=O)[nH]c(=O)c1[N+](=O)[O-] | 229 to 230 °C
35 | COCc1ccc(C2(O)CCN(CC(O)c3cc(C)c(O)cc3C)CC2)cc1 (centres undefined) | 166 °C
36 | CCCCCCCCCCCCCCCCCCc1ccc(S(=O)(=O)Cl)cc1 | 43 to 44 °C
37 | CN(C[C@H](O)c1cccc(OCC(=O)O)c1)c1cnc(-c2ccccc2)c(-c2ccccc2)n1 | 158 to 159 °C
38 | Cc1c(C)c2c(c(C)c1NS(C)(=O)=O)CC(C)(C)O2 | 159 to 160 °C
39 | CN(CCCC(C(N)=O)(c1ccccc1)c1ccccc1)CCc1ccc(CN)cc1 | 139 to 142 °C
40 | O=c1cnc(-c2cc(Br)cc(-c3ccsc3)c2)nn1CC(F)(F)F | 180 to 182 °C
41 | CCc1cc2c(s1)-n1c(C3CCCCC3)nnc1C(NC(=O)Nc1ccc(OC)cc1)N=C2c1ccccc1Cl (centres undefined) | 268 to 269 °C
42 | COCc1cc(O[C@@H]2c3ccccc3C[C@H]2O)c2nc(C)c(C)n2c1 (relative stereo) | 142 to 143 °C
43 | CC(=O)Cn1c(Oc2ccc(-n3c4ncccc4n4ccnc34)cc2)nc2ccccc21 | 189 to 192 °C
44 | C=C(C)COc1ccc(C=CC(=O)OCCCC)cc1 | 32 to 33 °C
45 | CCOC(=O)c1csc2cc(O)ccc12 | 128 to 129 °C
46 | CCC(=O)N(CC)c1ccc(C(=O)C=CN(C)C)cc1 | 75 to 77 °C
47 | CCOC(=O)c1cc(CC)sc1Nc1ccccc1[N+](=O)[O-] | 66 to 68 °C
48 | Cc1ccc(C2CCN(CCc3c(C)[nH]c4ccccc34)CC2)cc1 | 192 to 194 °C
49 | COCC1CN(c2c(F)cc3c(=O)c(C(=O)O)cn([C@@H]4C[C@@H]4F)c3c2OC)CCN1 (some centres undefined) | 92 to 95 °C
